Assay results published in the METLIN SMRT retention time set (Domingo-Almenara et al. 2019).

Assay: gradient 5% acetonitrile 3 min, to 50% in 2 min, to 85% in 15 min, held 3 min, 100 µL/min
Details: column: Zorbax Extend-C18 2.1 x 50 mm; eluents: water / acetonitrile, 0.1% formic acid
Procedure, shortened: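 Pure standards were analyzed in mixtures of ~100 molecules using HPLC coupled to a quadrupole time-of-flight mass spectrometer, in both positive and negative ionization mode. Separation used a Zorbax Extend-C18 column (2.1 × 50 mm, 1.8 μm) at 100 μL/min, with water and acetonitrile each containing 0.1% formic acid. Dead and dwell volumes were 40 μL and 900 μL, and data were collected over 3 months. Retention time was read from computationally picked adduct peaks, each inspected manually.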

Row | SMILES | RP-LC retention time
1 | CN(C)c1ccc(/C=C2\SC(=O)N(CC(=O)Nc3ccccc3C(F)(F)F)C2=O)cc1 | 992 s
2 | O=C(NCCCN1CCOCC1)c1cc2n(n1)CCCN(Cc1ccccc1)C2=O | 594 s
3 | CC1CC(=O)N(CC(=O)Nc2ccc3c(c2)OCCO3)c2ccccc2S1 (stereo not drawn) | 859 s
4 | O=C(CN1C(=O)CSc2ccc(C(=O)N3CCCC3)cc21)N1CCN(c2ncccn2)CC1 | 661 s
5 | O=S(=O)(c1cccnc1)N1CCCn2nc(-c3cccc(F)c3)cc2C1 | 698 s
6 | O=c1onc2cnc3ccccc3n12 | 822 s
7 | O=C1CCN(C(=O)COc2ccc(Cl)cc2)c2ccccc2N1 | 691 s
8 | COc1ccc(C(=O)c2cnc3ccc(OC)cc3c2N2CCOCC2)cc1 | 677 s
9 | CCOC(=O)c1cc(S(=O)(=O)N2CCCC2C(=O)NCc2ccc(C)o2)cn1C (stereo not drawn) | 846 s
10 | O=C(Nc1ccc(C(F)(F)F)cc1)C1CCN(S(=O)(=O)c2ccc3[nH]c(=O)sc3c2)CC1 | 924 s
11 | Cc1ccc(C)c(S(=O)(=O)N2CCCN(C)c3ccccc32)c1 | 1100 s
12 | CCn1ccc(C(=O)Nc2ccc(N3CCN(c4ccccc4)C3=O)nc2)n1 | 786 s
13 | Cc1ccc(-n2c(N3CCCC(C(=O)NCCCc4ccccc4)C3)nc3ccsc3c2=O)cc1 (stereo not drawn) | 987 s
14 | CCc1nn2c(CNC(=O)c3ccccc3)c(-c3ccccc3)nc2s1 | 870 s
15 | Cc1cc2nn(CC(=O)NCc3ccco3)c(=O)n2c(Nc2ccc(C)c(F)c2)n1 | 923 s
16 | CCOCCCNc1ccc(-c2nnc(-c3ccc(C)cc3)o2)cn1 | 801 s
17 | O=C(CN1C(=O)CCc2cc(Br)ccc21)N1CCN(c2ccccn2)CC1 | 621 s
18 | O=C(Nc1ccc2c(c1)OCO2)N1CCC2(CC1)Nc1cc(F)ccc1-n1cccc12 | 1000 s
19 | CN(Cc1ccccc1)C(=O)c1cn(-c2cc(N3CCSCC3)ncn2)cn1 | 869 s
20 | COc1ccc(N(CC(O)CNCCC(C)C)S(=O)(=O)c2ccc(C)cc2)cc1 (stereo not drawn) | 620 s
21 | O=C(Oc1coc(CSc2ncccn2)cc1=O)c1cccs1 | 695 s
22 | Cc1ccc(Nc2c(-c3ccc(C)cc3)nc3c(C)cccn23)cc1 | 808 s

Row | SMILES | RP-LC retention time
23 | O=C(Cc1cccc(F)c1)N1CCC(n2nc(-c3ccsc3)ccc2=O)CC1 | 812 s
24 | COc1ccc(-n2nnc(C(=O)O)c2C)cc1OC | 628 s
25 | COc1ccc2cc3c(=O)n(-c4ccc(C(=O)O)cc4)nc-3oc2c1 | 891 s
26 | N#CC1(c2ccc(NC(=O)c3cccnc3NCc3ccncc3)cc2)CCCC1 | 734 s
27 | COc1ccc(-c2nc(NC(=O)CSc3ccccc3)sc2CCC(=O)O)cc1 | 852 s
28 | CC(C)c1ccc(S(=O)(=O)N2CC=C(c3cn(C)c4ncccc34)CC2)cc1 | 1130 s
29 | CC(C)(C)C(=O)Nc1ccc(N2CCN(CC(=O)N3CCCC3)CC2)cc1C(=O)O | 573 s
30 | Cc1ccc(Cn2nnc3cc(C(=O)N4CCN(c5ncccn5)CC4)ccc32)cc1 | 822 s
31 | Cc1ccc(CNC(=O)COc2ccccc2-c2nnc(-c3ccccc3)o2)o1 | 1040 s
32 | Cc1cc(=O)n(CCc2ccccc2)c(N2CCCC2)n1 | 742 s
33 | CCc1ccccc1NC(=O)C(=O)NCC1CCN(CCOC)CC1 | 562 s
34 | CCc1cccc(-n2nnnc2N2CCN(C(=O)Nc3ccc(C)c(F)c3)CC2)c1 | 981 s
35 | CCc1ccc(-c2ccc(=O)n(CCc3nc(-c4ccc(C)cc4)no3)n2)cc1 | 1180 s
36 | O=c1cccnn1CCCNS(=O)(=O)c1ccc(F)c(C(F)(F)F)c1 | 741 s
37 | COc1cc(Cl)ccc1C(=O)N1C[C@@H]2C[C@H]1C[C@@H]2NC(=O)c1ccccc1 | 939 s
38 | O=C(Cn1nc2c(SC3CCCCC3)nccn2c1=O)Nc1ccc(Br)cc1F | 1120 s
39 | CCCCC(=O)Nc1ccc(SCc2nnc(-c3ccc4c(c3)OCO4)o2)cc1 | 948 s
40 | Cc1nc(N2CCOCC2)c2c(C(=O)N3CCN(c4cccc(Cl)c4)CC3)c(C)oc2n1 | 917 s
41 | CCc1cccc(NC(=O)Cn2ncc3c(N4CCN(c5ccccn5)CC4)ncnc32)c1 | 655 s
42 | Cc1nc(C2CN(S(=O)(=O)c3cccc(C(F)(F)F)c3)CC23CCOCC3)no1 (stereo not drawn) | 856 s
43 | O=S(=O)(c1ccccc1Cl)N1CC(F)(F)C[C@H]1COc1cccnc1 | 731 s
44 | Cc1ccc(-c2nnc(CC(=O)NC(C)CCc3ccccc3)o2)cc1 (stereo not drawn) | 840 s

Row | SMILES | RP-LC retention time
45 | Cc1cc(C)c(NC(=O)Cn2nc3cc(C)nc(-c4ccccc4)n3c2=O)c(C)c1 | 867 s
46 | CCOc1ccc(N2C(=O)C3N=NN(Cc4nc(-c5cccc(Br)c5)no4)C3C2=O)cc1 (stereo not drawn) | 1080 s
47 | CCOC(=O)CNC(=O)NCC(=O)N1CCc2ccccc21 | 658 s
48 | CCCCN(C)Cc1nc(-c2ccc(N3CCOCC3)nc2)no1 | 594 s
49 | CCOC(=O)c1ccc2nc(C(F)(F)F)nc(NC(C)CCc3ccccc3)c2c1 (stereo not drawn) | 1360 s
50 | CCCOc1ccc(-c2noc(Cc3nc(-c4ccc(OC)c(OC)c4)cs3)n2)cc1 | 1220 s
51 | CCn1cc(CC(=O)NCc2ccc(C)o2)c2cccnc21 | 682 s
52 | COc1cc(CN2CC(Oc3ccc(-c4noc(C5CC5)n4)cc3)C2)cc(OC)c1 | 772 s
53 | COc1ccc(C2C(C(=O)NCC3CCCO3)c3cc(OC)c(OC)cc3C(=O)N2C)cc1OC (stereo not drawn) | 652 s
54 | CCC1CCCCN1Cc1nc(Cn2ccn3nc(-c4ccccc4)cc3c2=O)no1 (stereo not drawn) | 676 s
55 | Cc1ccc(NC(=O)Cc2csc3nc(-c4ccc(C)c(C)c4)cn23)cc1 | 884 s
56 | COc1ccc(NC(=O)c2cnc3c(c2)c(=O)n(C)c(=O)n3-c2ccccc2)cc1Cl | 916 s
57 | Cc1ccsc1-c1nnc(CC(=O)N2CCN(Cc3ccccc3)CC2)o1 | 630 s
58 | CCOCCCNC(=O)c1cnn2c(C(F)(F)F)cc(-c3ccccc3)nc12 | 1010 s
59 | COc1ccc(-c2nc(N(Cc3ccco3)C3CCCCC3)c3ccccc3n2)cc1 | 1030 s
60 | CCOc1ccc(NC(=O)N2CCN(c3cc(C)nc(Nc4ccc(C)cc4)n3)CC2)cc1 | 727 s
61 | Cc1ccccc1C(=O)NCc1ccc2c(c1)ncn2C(C)C | 598 s
62 | CCOC(=O)c1c(S(=O)(=O)N2CCC(C(=O)NCCC3=CCCCC3)CC2)c(C)n(C)c1C | 896 s
63 | COc1ccccc1N1CCN(CCNC(=O)NCc2cccs2)CC1 | 586 s
64 | CCc1noc2nc(C)n(CC(=O)NCCCc3ccccc3)c(=O)c12 | 832 s
65 | Cc1ccc(CCNC(=O)c2cc3sccc3n2Cc2ccc(F)cc2)cc1 | 702 s
66 | Cc1ccc2c(=O)c3c([nH]c2c1C)CCN(CC(=O)Nc1cc(F)cc(F)c1)C3 | 638 s

Row | SMILES | RP-LC retention time
67 | CCOc1ccc(S(=O)(=O)[C@H]2CS(=O)(=O)C[C@@H]2N2CCN(c3ccccn3)CC2)cc1 | 640 s
68 | CC(Cc1ccco1)NC(=O)C(C)n1c2ccccc2c2cnn(C)c(=O)c21 (stereo not drawn) | 603 s
69 | COc1ccc(-c2noc(Cc3nnc(-c4ccc(C)c(C)c4)o3)n2)cc1 | 1090 s
70 | COc1cccc2c(C)nc(NC3=NCN(Cc4ccc5c(c4)OCO5)CN3)nc12 | 700 s
71 | Cc1cccc(N2CCN(C(=O)c3ccc(CN4CCN(C(C)C)C(=O)C4=O)cc3)CC2)c1 | 759 s
72 | N#CCSc1nnc2sc3ccccc3n12 | 671 s
73 | N#Cc1ccc(C(=O)NCc2[nH]nc3ccccc23)cc1 | 699 s
74 | COc1cccc(C(=O)Nc2c(-c3ccccc3)nc3ccccn23)c1OC | 666 s
75 | CN(CCNC(=O)c1ccc2[nH]c3c(c2c1)CN(C(=O)C1CCC1)CC3)C1CCCCC1 | 646 s
76 | O=C(NCc1ccccc1)C1CCN(c2cnc3nccnc3c2)CC1 | 662 s
77 | CCn1ccc2ccn(CC(=O)NCc3ccc4c(c3)OCO4)c(=O)c21 | 726 s
78 | Cc1ccc(C(C)NC(=O)c2ccc(CN3CCN(C(C)C)C(=O)C3=O)cc2)c(C)c1 (stereo not drawn) | 761 s
79 | CN1CCn2cc(S(=O)(=O)N3CCN(c4ccccc4)CC3)cc2C1=O | 764 s
80 | COc1ccccc1CNC(=O)C1CCN(c2cc(N3CCSCC3)ncn2)CC1 | 717 s
81 | CCn1ccc(-c2nc(-c3ccc4oc(-c5ccccc5)nc4c3)no2)n1 | 1130 s
82 | CC1(C(=O)NCc2ccccc2)CCCN(C(=O)Nc2ccc(Br)cc2F)C1 (stereo not drawn) | 1030 s
83 | CCCNC(=O)c1cn(-c2ccc(S(=O)(=O)N3CCCC(C)C3)cn2)cn1 (stereo not drawn) | 884 s
84 | COc1ccc(Cn2c(=O)c3sccc3n(Cc3nc(-c4ccc(F)c(Cl)c4)no3)c2=O)cc1 | 1190 s
85 | CCc1csc(-c2ccc(N3CCN(C(=O)c4c(F)cccc4F)CC3)nc2)n1 | 976 s
86 | CCOc1ccc(-n2nnnc2CN2CCN(C(=O)c3cccs3)CC2)cc1 | 746 s
87 | COc1ccc(NC(=O)Cn2cnc3nc4c(cc3c2=O)CCCC4)cc1OC | 676 s
88 | Cc1ccc(CN(C)C(=O)NC(C)C)s1 | 804 s
